Assay results from patent publication US11051515B2, “3-acyl-benzamides and their use as herbicides” (Bayer Aktiengesellschaft, priority 2017, dated 2021).

How the values were obtained:
ALOMY [1] = test: Pre-emergence action against ALOMY; type: in vivo, Alopecurus myosuroides; settings: dosage 320 g/ha, pre-emergence, scored visually after 3 weeks vs untreated controls, 100% = plants have died, 0% = like control plants
Procedure, shortened: (§1)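 Seeds sown in sandy loam in wood-fiber pots and covered with soil. Greenhouse growth; visual damage scored after 3 weeks versus untreated controls (100% = dead, 0% = like control).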

AVEFA [2] = test: Pre-emergence action against AVEFA; type: in vivo, Avena fatua; settings: dosage 320 g/ha, scored visually after 3 weeks vs untreated controls
Procedure, shortened: as §1

CYPES = test: Pre-emergence action against CYPES; type: in vivo, Cyperus esculentus; settings: pre-emergence, dosage 320 g/ha, scored visually after 3 weeks vs untreated controls
Procedure, shortened: as §1

ECHCG [3] = test: Pre-emergence action against ECHCG; type: in vivo, Echinochloa crus-galli; settings: pre-emergence, dosage 320 g/ha, scored visually after 3 weeks vs untreated controls
Procedure, shortened: as §1

LOLMU [4] = test: Pre-emergence action against LOLMU; type: in vivo, Lolium multiflorum; settings: dosage 320 g/ha, scored visually after 3 weeks vs untreated controls
Procedure, shortened: as §1

SETVI [5] = test: Pre-emergence action against SETVI; type: in vivo, Setaria viridis; settings: pre-emergence, dosage 320 g/ha, scored visually after 3 weeks vs untreated controls
Procedure, shortened: as §1

ABUTH [6] = test: Pre-emergence action against ABUTH; type: in vivo, Abutilon theophrasti; settings: pre-emergence, dosage 320 g/ha, scored visually after 3 weeks vs untreated controls
Procedure, shortened: as §1

AMARE [7] = test: Pre-emergence action against AMARE; type: in vivo, Amaranthus retroflexus; settings: pre-emergence, dosage 320 g/ha, scored visually after 3 weeks vs untreated controls
Procedure, shortened: as §1

MATIN [8] = test: Pre-emergence action against MATIN; type: in vivo, Matricaria inodora; settings: Dosage 320 g/ha, pre-emergence
Procedure, shortened: as §1

POLCO [9] = test: Pre-emergence action against POLCO; type: in vivo, Polygonum convolvulus; settings: Fallopia convolvulus, 504 h; Dosage 320 g/ha, pre-emergence
Procedure, shortened: as §1

STEME [10] = test: Pre-emergence action against STEME; type: in vivo, Stellaria media; settings: Dosage 320 g/ha, pre-emergence
Procedure, shortened: as §1

VIOTR [11] = test: Pre-emergence action against VIOTR; type: in vivo, Viola tricolor; settings: Dosage 320 g/ha, pre-emergence
Procedure, shortened: as §1

VERPE [12] = test: Pre-emergence action against VERPE; type: in vivo, Veronica persica; settings: Dosage 320 g/ha, pre-emergence
Procedure, shortened: as §1

ALOMY [13] = test: Post-emergence action against ALOMY; type: in vivo, Alopecurus myosuroides; settings: Dosage 80 g/ha, post-emergence
Procedure, shortened: (§2)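 Post-emergence foliar spray on greenhouse plants at the one-leaf stage, using wettable-powder or emulsion-concentrate formulations in water (600 to […], plus 0.2% wetting agent). Damage scored by eye roughly 3 weeks later against untreated plants: 0% = like control, 100% = dead.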

AVEFA [14] = test: Post-emergence action against AVEFA; type: in vivo, Avena fatua; settings: post-emergence, dosage 80 g/ha, visual assessment about 3 weeks after treatment vs untreated controls
Procedure, shortened: as §2

ECHCG [15] = test: Post-emergence action against ECHCG; type: in vivo, Echinochloa crus-galli; settings: post-emergence, dosage 80 g/ha, visual assessment about 3 weeks after treatment vs untreated controls
Procedure, shortened: as §2

LOLMU [16] = test: Post-emergence action against LOLMU; type: in vivo, Lolium multiflorum; settings: dosage 80 g/ha, visual assessment about 3 weeks after treatment vs untreated controls
Description: Seeds of monocotyledonous and dicotyledonous weed and crop plants are laid out in sandy loam soil in wood-fiber pots, covered with soil and cultivated in a greenhouse under good growth conditions. 2 to 3 weeks after sowing, the test plants are treated at the one-leaf stage. The compounds of the invention, formulated in the form of wettable powders (WP) or as emulsion concentrates (EC), are then sprayed onto the green parts of the plants in the form of an aqueous suspension or emulsion at a water application rate equating to […], with addition of 0.2% wetting agent. After the test plants have been left to stand in the greenhouse under optimal growth conditions for about 3 weeks, the action of the preparations is assessed visually in comparison to untreated controls (herbicidal action in percent (%): 100% activity=the plants have died, 0% activity=like control plants). […] At the same time, inventive compounds leave Gramineae crops such as barley, wheat, rye, millet/Sorghum, corn or rice virtually undamaged when applied post-emergence, even at high active ingredient dosages. In addition, some substances are also harmless to dicotyledonous crops such as soya, cotton, oilseed rape, sugar beet or potatoes. Some of the compounds according to the invention have high selectivity and are therefore suitable for controlling unwanted vegetation in agricultural crops by the post-emergence method. The data of Tables B18 to B34 below illustrate, in an exemplary manner, the […] herbicidal action of the compounds according to the invention, the herbicidal activity being stated in percent.

SETVI [17] = test: Post-emergence action against SETVI; type: in vivo, Setaria viridis; settings: post-emergence, dosage 80 g/ha, visual assessment about 3 weeks after treatment vs untreated controls
Procedure, shortened: as §2

ABUTH [18] = test: Post-emergence action against ABUTH; type: in vivo, Abutilon theophrasti; settings: post-emergence, dosage 80 g/ha, visual assessment about 3 weeks after treatment vs untreated controls
Procedure, shortened: as §2

AMARE [19] = test: Post-emergence action against AMARE; type: in vivo, Amaranthus retroflexus; settings: post-emergence, dosage 80 g/ha, visual assessment about 3 weeks after treatment vs untreated controls
Procedure, shortened: as §2

MATIN [20] = test: Post-emergence action against MATIN; type: in vivo, Matricaria inodora; settings: post-emergence, dosage 80 g/ha, visual assessment about 3 weeks after treatment vs untreated controls
Procedure, shortened: as §2

PHBPU [21] = test: Post-emergence action against PHBPU; type: in vivo, Pharbitis purpurea; settings: post-emergence, dosage 80 g/ha
Procedure, shortened: as §2

POLCO [22] = test: Post-emergence action against POLCO; type: in vivo, Polygonum convolvulus; settings: post-emergence, dosage 80 g/ha
Procedure, shortened: as §2

STEME [23] = test: Post-emergence action against STEME; type: in vivo, Stellaria media; settings: Stellaria media, 504 h; post-emergence, dosage 80 g/ha
Procedure, shortened: as §2

VIOTR [24] = test: Post-emergence action against VIOTR; type: in vivo, Viola tricolor; settings: post-emergence, dosage 80 g/ha
Procedure, shortened: as §2

VERPE [25] = test: Post-emergence action against VERPE; type: in vivo, Veronica persica; settings: dosage 80 g/ha
Procedure, shortened: as §2

PHBPU [26] = test: Pre-emergence action against PHBPU; type: in vivo, Pharbitis purpurea; settings: Dosage 320 g/ha, pre-emergence
Procedure, shortened: as §1

CSc1ccc(C(=O)Nc2nnnn2C)c(Cl)c1C(C)=O [1-121]
pest or weed control at 320 g/ha (ALOMY [1]; Alopecurus myosuroides, 504 h, read-out: Pre-emergence action against ALOMY (herbicidal activity in percent)): 90% | pest or weed control at 320 g/ha (AVEFA [2]; Avena fatua, 504 h, read-out: Pre-emergence action against AVEFA (herbicidal activity)): 90% | pest or weed control at 320 g/ha (CYPES; Cyperus esculentus, 504 h, read-out: Pre-emergence action against CYPES (herbicidal activity)): 90% | pest or weed control at 320 g/ha (ECHCG [3]; Echinochloa crus-galli, 504 h, read-out: Pre-emergence action against ECHCG (herbicidal activity)): 100% | pest or weed control at 320 g/ha (LOLMU [4]; Lolium multiflorum, 504 h, read-out: Pre-emergence action against LOLMU (herbicidal activity)): 90% | pest or weed control at 320 g/ha (SETVI [5]; Setaria viridis, 504 h, read-out: SETVI (Table B8, pre-emergence herbicidal activity)): 100% | pest or weed control at 320 g/ha (ABUTH [6]; Abutilon theophrasti, 504 h, read-out: Pre-emergence action against ABUTH (herbicidal activity)): 90% | pest or weed control at 320 g/ha (AMARE [7]; Amaranthus retroflexus, 504 h, read-out: Pre-emergence action against AMARE (herbicidal activity)): 100% | pest or weed control at 320 g/ha (MATIN [8]; Tripleurospermum inodorum, 504 h): 100% | pest or weed control at 320 g/ha (POLCO [9]): 90% | pest or weed control at 320 g/ha (STEME [10]; Stellaria media, 504 h): 90% | pest or weed control at 320 g/ha (VIOTR [11]; Viola tricolor, 504 h): 100% | pest or weed control at 320 g/ha (VERPE [12]; Veronica persica, 504 h): 100% | pest or weed control at 80 g/ha (ALOMY [13]; Alopecurus myosuroides, 504 h): 90% | pest or weed control at 80 g/ha (AVEFA [14]; Avena fatua, 504 h, read-out: Post-emergence action against AVEFA (herbicidal action in percent)): 90% | pest or weed control at 80 g/ha (ECHCG [15]; Echinochloa crus-galli, 504 h, read-out: Post-emergence action against ECHCG (herbicidal action in percent)): 90% | pest or weed control at 80 g/ha (LOLMU [16]; Lolium multiflorum, 504 h, read-out: Post-emergence action against LOLMU (herbicidal action in percent)): 90% | pest or weed control at 80 g/ha (SETVI [17]; Setaria viridis, 504 h, read-out: Post-emergence action against SETVI (herbicidal action in percent)): 90% | pest or weed control at 80 g/ha (ABUTH [18]; Abutilon theophrasti, 504 h, read-out: Post-emergence action against ABUTH (herbicidal action in percent)): 90% | pest or weed control at 80 g/ha (AMARE [19]; Amaranthus retroflexus, 504 h, read-out: Post-emergence action against AMARE (herbicidal action in percent)): 90% | pest or weed control at 80 g/ha (MATIN [20]; Tripleurospermum inodorum, 504 h, read-out: Post-emergence action against MATIN (herbicidal action in percent)): 100% | pest or weed control at 80 g/ha (PHBPU [21]; Ipomoea purpurea, 504 h): 90% | pest or weed control at 80 g/ha (POLCO [22]; Fallopia convolvulus, 504 h): 80% | pest or weed control at 80 g/ha (STEME [23]): 100% | pest or weed control at 80 g/ha (VIOTR [24]; Viola tricolor, 504 h): 90% | pest or weed control at 80 g/ha (VERPE [25]; Veronica persica, 504 h): 100%

CCn1nnnc1NC(=O)c1ccc(C(F)(F)F)c(C(=O)C2CC2)c1Cl [2-141]
Pre-emergence action against ALOMY (herbicidal activity in percent) (ALOMY [1]): 100% | Pre-emergence action against AVEFA (herbicidal activity) (AVEFA [2]): 100% | Pre-emergence action against CYPES (herbicidal activity) (CYPES): 90% | Pre-emergence action against ECHCG (herbicidal activity) (ECHCG [3]): 100% | Pre-emergence action against LOLMU (herbicidal activity) (LOLMU [4]): 100% | SETVI (Table B8, pre-emergence herbicidal activity) (SETVI [5]): 100% | Pre-emergence action against ABUTH (herbicidal activity) (ABUTH [6]): 100% | Pre-emergence action against AMARE (herbicidal activity) (AMARE [7]): 100% | Pre-emergence action against MATIN (MATIN [8]): 100% | Pre-emergence action against PHBPU (PHBPU [26]): 80% | Pre-emergence action against STEME (STEME [10]): 90% | Pre-emergence action against VIOTR (VIOTR [11]): 100% | Pre-emergence action against VERPE (VERPE [12]): 100% | Post-emergence action against ALOMY (ALOMY [13]): 90% | Post-emergence action against AVEFA (herbicidal action in percent) (AVEFA [14]): 90% | Post-emergence action against ECHCG (herbicidal action in percent) (ECHCG [15]): 90% | Post-emergence action against LOLMU (herbicidal action in percent) (LOLMU [16]): 90% | Post-emergence action against SETVI (herbicidal action in percent) (SETVI [17]): 90% | Post-emergence action against ABUTH (herbicidal action in percent) (ABUTH [18]): 90% | Post-emergence action against AMARE (herbicidal action in percent) (AMARE [19]): 90% | Post-emergence action against MATIN (herbicidal action in percent) (MATIN [20]): 80% | Post-emergence action against PHBPU (PHBPU [21]): 90 | Post-emergence action against POLCO (POLCO [22]): 90 | Post-emergence action against VIOTR (VIOTR [24]): 100 | Post-emergence action against VERPE (VERPE [25]): 80
